Measurements as given in US5264148A, “Moisture scavenging oxazolidines” (Angus Cheical Company, priority 1990, dated 1993).
Like-named read-outs stand apart in the source and are kept apart here.

Tests used:
[1] = Acute oral toxicity (TSCA, 40 CFR Part 798, 798.1175); details: rat, in vivo, dose levels 1.80, 1.50 and 1.30 g/kg, male and female Sprague-Dawley rats
Description: Based upon the standards of the Toxic Substance Control Act (TSCA), 40 CFR, Part 798, Subpart A, General Toxicity Testing, Acute Oral Toxicity, 798.1175, July 1989, 2-isopropyl-4-ethyl oxazolidine was evaluated for its potential to produce death following oral administration at dose levels of 1.80g/kg, 1.50 g/kg, and 1.30 g/kg, to male and female Sprague-Dawley rates.

[2] = tested on: four strains of Salmonella typhimurium; test: Ames Mutagenicity Assay; assay type: cell-based; details: presence and absence of exogenous mammalian activation system
Description: The Ames Mutagenicity Assay was performed to determine the mutagenicity of the compound. The assay evaluates the mutagenic potential of a test substance by its ability to induce back mutations at selected loci of four strains of Salmonella typhimurium in the presence and absence of an exogenous mammalian activation system.

[3] = tested on: male and female New Zealand White albino rabbits; test: Acute dermal toxicity (TSCA, 789.1100); assay type: in vivo; details: topical, 2 g/Kg
Description: Based upon the standards of the Toxic Substance Control Act (TSCA), 40 CFR, Part 798, Subpart A, General Toxicity Testing, Acute Dermal Toxicity, 789.1100, July 1989, the compound was evaluated for its potential to produce systematic toxicity or death following topical application at a dose of 2 g/Kg in male and female New Zealand White albino rabbits.

[4] = Comparison of water-scavenging activity in pigment millbase (GC determination of remaining water)
From the text: The water-scavenging activity of 4-ethyl-2-isopropyl oxazolidine (BBA), 1-aza-3,7-dioxo-2,8-diisopropyl-5-ethylbicyclo (3.3.0) octane (EBA), p-toluenesulfonyl isocyanate (PTSI), isophorone diisocyanate (IPDI), and sodium potassium aluminosilicate (SPAS) were compared in pigment millbase formulation. Formulations of this type are representative of pigment formulations used in moisture-curing urethane coating systems. The following millbase formulation was used: […]
The following procedure was used to prepare the millbase. All the materials were weighed out and added under agitation into a pot. Soft Resin P-65, obtained from Mobay Corp., is a 65% synthetic (non-reactive polyester) resin in solvent Naphtha 100 and is employed as a grind aid. CAB 551, obtained from Eastman Chemical Products, Inc., Kingsport, Tenn., is cellulose acetate butyrate ester and was employed as a rheology aid. CAB 551 was dissolved in PMA. PMA is propylene glycol monomethyl ether acetate obtained from Eastman Chemical Products, Inc. The solution of CAB 551 in PMA included 33% CAB 551 by weight. Anti-Terra-U is a wetting and dispersing additive obtained from BYK-Chemie U.S.A., Wallingford Conn., and is a solution of a salt of unsaturated polyamine amides and higher molecular weight acidic esters. Ektasolve-EEP, obtained from Eastman Chemicals Products, Inc., is ethyl-3-ethoxypropionate stabilized with 2,6-di-tert-butyl- p-cresol, and was employed as a solvent. M-P-A 2000X, obtained from Rheox, Inc., Hightstown, N.J., was employed as an antisettling agent. R-960-TiO2 is a titanium dioxide pigment obtained from E.I. du Pont Nemours & Co., Inc., Wilmington, Del.
Once the ingredients were added to the vessel they were continuously agitated until a 7 Hegman grind value was obtained for the mixture. The millbase was then heated to 60° C. A portion of the mixture was removed, and the percent of water remaining was determined using gas chromatography. Using the determined percentage of water, the minimum amount of the water-scavenger compound to be added to the millbase was calculated using the following equation:
Minimum weight of water scavenger=wt. mb.×wt. % H2 O×(1/MW
H2 O×mol.×MW scavenger/purity)
The determined amount of each moisture-scavenger was added to one millbase. Six millbases were prepared. Each of the five moisture-scavengers listed above were tested in a millbase with one millbase remaining untreated as a control. Once the millbases were treated, they were mixed continuously. At 30 minutes, 60 minutes, 120 minutes, 180 minutes, 240 minutes, and 300 minutes, samples of the millbase were removed and the amount of water remaining in the millbase was determined using gas chromatography. In each trial two moles of moisture scavenger was used for every mole of water. The results of 6 trials are summarized below in Table I and graphically represented in FIG. 1.

[5] = tested on: skin of New Zealand White Rabbits; test: Primary dermal irritation (TSCA, Section 798.4470); assay type: in vivo; details: single topical application, TSCA guidelines
Description: Based upon the standards of the Toxic Substances Control Act (TSCA), 40 CFR, Part 798, Subpart E, Specific Organ/Tissue Toxicity, Primary Dermal Irritation, Section 798.4470, July 1989, 2-isopropyl-4-ethyl oxazolidine was evaluated for its potential to produce primary dermal irritation after a single topical application to the skin of New Zealand White Rabbits.

[6] = Acute dermal toxicity (FIFRA, 40 CFR 162); assay type: in vivo, New Zealand White Rabbits; details: rabbit, in vivo, topical or ocular, undiluted, male and female New Zealand White rabbits
Description: (§1) The acute dermal toxicity of the compound was evaluated in compliance with the conditions specified in the Regulation for the Enforcement of Federal Insecticide, Fungicide and Rodenticide Act (40 CFR 162). The compound was applied undiluted to the skin of one group of five male and five female New Zealand White Rabbits at a dosage of 2.0 g/kg for 24 hours. […] Animals were weighted 7 days after treatment. At the end of the 14day observation period, the rabbits were weighed, killed, and given a gross necropsy.

[7] = tested on: skin of male and female New Zealand White Rabbits; test: Acute dermal toxicity (FIFRA, 40 CFR 162); assay type: in vivo; details: undiluted, 2.0 g/kg for 24 hours, rabbits
Description: as §1

[8] = tested on: male and female Sprague-Dawley derived albino rats; test: Acute oral toxicity (FIFRA, 40 CFR 162); assay type: in vivo; details: undiluted, 5.0 g/kg, rats
Description: (§2) The acute oral toxicity of the compound was evaluated in compliance with the conditions specified in the Regulation for the Enforcement of Federal Insecticide, Fungicide and Rodenticide Act (40 CFR 162). The compound was administered undiluted at a dosage of 5.0 g/kg to one group of five male and five female, Sprague-Dawley derived, albino rats. […] Animals were weighed seven days after treatment. At the end of the 14-day observation period, the rats were weighed, killed, and given a gross necropsy.

[9] = Acute oral toxicity (FIFRA, 40 CFR 162); assay type: in vivo, Sprague-Dawley derived, albino rats; details: rat, in vivo, undiluted, male and female Sprague-Dawley rats
Description: as §2

[10] = tested on: eye of New Zealand White rabbits; test: Primary eye irritation (FIFRA, 40 CFR 162); assay type: in vivo
Description: The primary […] irritation of the compound was evaluated in compliance with the conditions specified in the Regulation for the Enforcement of Federal Insecticide, Fungicide and Rodenticide Act (40 CFR 162). A small amount of the undiluted compound (0.1 ml) was applied to the right or left eye of six New Zealand White rabbits (one male and five females). The compound was allowed to remain without rinsing in the eyes of the animals. The eyes were graded for corneal changes, conjunctival changes, and changes in the iris one hour after application, and one, two, three, four, and seven days later.

[11] = tested on: intact skin of New Zealand White rabbits; test: Primary skin irritation (FIFRA, 40 CFR 162); assay type: in vivo
Description: The primary skin irritation of the compound was evaluated in compliance with the conditions specified in the Regulation for the Enforcement of Federal Insecticide, Fungicide and Rodenticide Act (40 CFR 162). A small amount of the compound (0.5 ml) was applied to an intact skin site on six New Zealand White rabbits (three males and three females) and allowed to remain in contact with the skin for 4 hours. The sites were scored for erythema and edema and checked for tissue damage 1/2 hour after the end of the application period (41/2 hour reading) and […] (24-hour reading) and at 48 and 72 hours.

[12] = 2 hrs, millbase heated to 60° C., two moles of scavenger per mole of water

## CCC1COC(C(C)C)N1 (stereo not drawn) [BBA, 4-ethyl-2-isopropyl oxazolidine]
[1]
  LD50: 1600 mg/kg
[2]
  mutagenicity (Ames): non-mutagenic
[3]; TSCA guidelines
  acute dermal toxicity classification: non-toxic
[3]; male and female rabbits
  acute dermal toxicity: mortality: absence of mortality
[4]
  % H2O Remaining After 30 min.: .20%
  % H2O Remaining After 60 min.: .19%
  % H2O Remaining After 2 hrs.: .13%
[5]
  primary dermal irritation classification: moderate irritant

## Cc1ccc(S(=O)(=O)N=C=O)cc1 [PTSI, p-toluenesulfonyl isocyanate, reference compound]
[4]; 30 min, millbase heated to 60° C., two moles of scavenger per mole of water
  % H2O Remaining After 30 min.: < .05%
[4]; 60 min, millbase heated to 60° C., two moles of scavenger per mole of water
  % H2O Remaining After 60 min.: < .05%
[4]; [12]
  % H2O Remaining After 2 hrs.: < .05%

## CCC12COC(C(C)C)N1C(C(C)C)OC2 (stereo not drawn) [EBA]
[6]
  LD50 at 336 h: > 2000 mg/kg
[7]; 14-day observation
  clinical changes: No clinical changes were observed
  deaths: No deaths occurred
[7]; end of 14-day observation
  gross necropsy findings: no significant gross changes
[7]
  most frequently observed irritative effects: erythema and desquamation
[8]; 14-day observation
  clinical changes: urine and/or fecal stains, mucoid feces, and alopecia
  deaths: No deaths occurred
[8]; end of 14-day observation
  gross necropsy findings: one rat with darkened and mottled lungs, otherwise no gross changes
[9]
  LD50 at 336 h: > 5000 mg/kg
[2]
  mutagenicity (Ames): non-mutagenic
[10]; 0.1 ml undiluted, without rinsing, six rabbits
  eye irritation persistence: irritation persisting for seven days
[10]; rabbit, in vivo
  corneal opacity: corneal opacity persisting for less than seven days
[11]; 0.5 ml, 4 hours contact, 72 hours after application
  persistence of irritation: Mild irritation persisted 72 hours after application
[11]; rabbit, in vivo
  Primary Irritation Index: 2.7
  tissue damage (corrosion): No evidence of tissue damage (corrosion)
[4]
  % H2O Remaining After 30 min.: .08%
  % H2O Remaining After 60 min.: .08%
  % H2O Remaining After 2 hrs.: .06%

## CC1(C)CC(N=C=O)CC(C)(CN=C=O)C1 (stereo not drawn) [IPDI, isophorone diisocyanate, reference compound]
[4]; [12]
  % H2O Remaining After 2 hrs.: < .02%
